In a melting point compilation (Tetko et al.; mined from patent text by program, amines drawn as free bases though some values may be those of a salt):

Compound	melting point [°C]
Cc1cc(C(=O)NN)ccc1-c1ccc(C(=O)C2CN(C)CCC23COc2cc4c(cc23)NCC4)cc1 (stereo unspecified)	130 to 135
CCOP(=O)(CS(=O)(=O)Oc1ccccc1)OCC	50.5 to 51.5
CS(=O)(=O)c1nccc(-c2nc(=O)c3ccccc3s2)n1	270
CCSc1cc(O)c(C#N)s1	105
O=C(Nc1ccc(Cl)c(Cl)c1)c1cc(C(F)(F)F)cc([N+](=O)[O-])c1Cl	202
CCc1nc2c([C@H](O)CO)cccc2cc1C	66
Cc1cccc(OC(=O)C(=O)Oc2cccc(C)c2)c1	101 to 103
O=C(NCCCl)Nc1ccncc1	120 to 122
CCC(CC)Nc1nc(-c2cc(OC)c(OC)c(OC)c2)nc2sc(C#N)c(C)c12	226 to 228
COC(=O)N=C(NC(=O)OC)SC	99 to 101
COC(=O)C1=C(CF)NC(C)=C(C(=O)OC(C)C)C1c1c(F)cccc1C(F)(F)F (stereo unspecified)	82 to 84
CC(c1ccc(-c2ccccc2)c(F)c1)c1nc(CC#N)no1 (stereo unspecified)	111 to 112
CC(C)(O)Cn1c(CO)nc2c(N)nc3cccnc3c21	235 to 237
CC1=C(C(=O)NCc2ccncc2)SCN1n1ccc(O)cc1=O	275 to 278
CC12C=CC(C)(CC(=O)C1)O2	62 to 63
CC(C)(C)C(NC(=O)c1ccc(Cl)cc1)NC(=NC#N)NCc1ccccn1 (stereo unspecified)	184 to 185
Nc1cc(C(=O)c2ccccc2)ccc1Cl	91.9
CCCOc1cc(CCCOc2nn(Cc3ccccc3)cc2CC(=O)O)n(Cc2ccc(F)cc2F)n1	94 to 95
CON(C)C(=O)Nc1ccc(OCCc2ccc3c(c2)CC(C)(C)O3)nc1	79 to 80
CC(=NOCC=Cc1ccccc1)C(=O)Cl	120 to 121

Compound	melting point [°C]
C=CCNC(=NC#N)Nc1ccc(C2=NNC(=O)CC2C)cc1 (stereo unspecified)	224 to 226
CCc1cc2c(cc1OC(C)=O)CCC1C2CCC2(C)C(C#N)=CCC12 (stereo unspecified)	176 to 177
CC(C)CCCCCCCC=CC1CC(=O)N(NC(=O)CCc2cc(C(C)(C)C)c(O)c(C(C)(C)C)c2)C1=O (stereo unspecified)	62 to 68
O=C(Nc1cc[nH]c(=O)n1)OCc1ccccc1	> 250
CCCc1c[nH]c(=O)[nH]c1=O	286 to 287
NC(=O)CCNC(=O)C1CCCN1C(=O)OCc1ccccc1 (stereo unspecified)	151 to 152
CC(C)(C)OC(=O)Cn1c(C(=O)O)cc2cnccc21	265
O=[N+]([O-])c1cnn2c(-c3ccccc3C(F)(F)F)ccnc12	195 to 197
CCCCCCC(C(=O)O)n1cnc2c(NC(=O)c3ccccc3-c3nn[nH]n3)cccc21 (stereo unspecified)	130 to 134
Nc1cc(C(=O)Nc2ccc(F)cc2)ccc1OC(F)(F)F	139 to 140
C#CCCN1C(=O)c2ccccc2C1=O	137 to 139
CCCCCCCCc1ccc(OCC(=O)Cn2cccn2)cc1	85 to 87
COC(=O)/C=C(/C#Cc1ccccc1)c1ccccc1	73 to 75
COC(=O)c1ccc(C(=O)CC(=O)/C=C/c2ccc(O)c(OC)c2)cc1	187 to 189
CCS(=O)(=O)c1ccc2c(c1)nc(CC(C)(C)C)n2CC1(O)CCCC1	172
CC(C)(C)OC(=O)Nc1ccc(C#Cc2ccc(Cl)cc2)cc1[N+](=O)[O-]	213 to 218
COc1ccc(-c2oncc2CCC(=O)O)cc1OC	169 to 170
O=C1NCN(c2ccc(F)cc2)C12CCN(CCCN(c1ccc(F)cc1)c1ccc(F)cc1)CC2	162 to 163
COc1ccc2c(c1)CCC(CN1CCC3(CC1)C(=O)NCN3c1ccccc1)=C2	182 to 193
O=C(O)CCCCCOc1ccccc1OCc1ccccc1	77 to 78

Compound	melting point [°C]
COc1ccc(C2CNCc3ccc(C)cc32)cc1OC (stereo unspecified)	94 to 96
COc1cc([N+](=O)[O-])ccc1S(=O)(=O)N1C(=O)C(N)(c2ccccc2Cl)c2cc(Cl)ccc21 (stereo unspecified)	229
COc1ccc(C2=CCN(Cc3c[nH]c4ncccc34)CC2)cc1	202 to 204
CC(C)(C)OC(=O)NCCNC(=O)c1ccc(CO)cc1	117 to 119
O=S(=O)(Nc1ccccc1)c1ccc(NC(=S)Nc2ccccc2)cc1	160 to 162
CC(C)(C)COc1c(-c2ccc(S(N)(=O)=O)c(F)c2)cnn(CC(F)(F)F)c1=O	144 to 145
COc1nsc(N[C@@H](CC(C)C)C(=O)N2CCC[C@H]2C(=O)O)n1	89 to 92
Cn1c(=O)cc(-c2cccc(Cl)c2)c2cccnc21	168 to 170
Cc1nn(-c2cc(C(F)(F)F)ccc2Cl)cc1C(=O)O	206 to 208
CC(=O)OCC1CC(OC(C)=O)C(n2c(Br)nc3cc(Cl)c(Cl)cc32)C1 (stereo unspecified)	122 to 125
CC(=O)OC[C@H]1O[C@@H](c2nc(C(N)=O)c(N)[nH]2)[C@H](OC(C)=O)[C@@H]1OC(C)=O	128 to 129
CC1(C)O[C@@H](CC(=O)O)C[C@@H](C=Cc2ccccc2)O1 (relative stereo)	153 to 155
CC(O)(CC(=O)O)CC(=O)O	108
CCOC(=O)C1=Cc2cccc(C(F)(F)F)c2OCC1	57 to 59
COc1ccccc1OC(=O)c1ncn2c1[C@@H]1CCCN1C(=O)c1c(Cl)cccc1-2	205 to 206
CC1(CCN2C(=O)c3cccc([N+](=O)[O-])c3C2O)OCCO1 (stereo unspecified)	130
CCCn1nc2c(N)nc3ccccc3c2c1CCN(CC)C(N)=O	206 to 207
O[C@@H](CNCc1ccccc1)C1CCCCC1	56 to 58
CCc1c(N)cccc1NC(=O)OC(C)(C)C	109 to 110
Fc1cccc2c(Nc3ccncc3)noc12	234 to 236

More lines, now with the values ahead:

melting point [°C]	Compound
173 to 175	CCOC(=O)c1ccc(NC(=O)C=Cc2ccc3ccccc3c2)cc1
304	Fc1ccc(-c2n[nH]c(-c3ccncc3)c2-c2ccncc2)cc1
115	CCCN(c1nc(-c2ccc(OC)cc2Cl)c(C)s1)c1cc(CO)ccc1OC
120	COc1ccc(CN(C)CC(=O)Nc2ccc([N+](=O)[O-])cc2)cc1OC
198 to 200	CCOC(=O)c1cn(-c2ccc([N+](=O)[O-])cc2)cn1
129 to 134	COc1ccc(Nc2ccncc2)cc1
156 to 158	NC(=O)N1CCN(c2nn(-c3ccccc3Cl)c3ccccc23)CC1
116 to 117	COc1ccc2cc([C@H](C)C(=O)OCCCN3C(=O)OC[C@H]3C(C)(C)SN=O)ccc2c1
108 to 110	CCn1c2ccccc2c2c(N)c(C(=O)OC)c(C)nc21
162 to 163	CS(=O)(=O)Cc1nnc(-c2ccc3occ(-c4cccc(OC(F)(F)F)c4)c3c2)o1
245 to 248	Cc1nc2c(N)nc3cccnc3c2n1CC1(O)CCN(C(=O)N2CCOCC2)CC1
95 to 96	CNC(=O)C(=NOC)c1ccccc1COc1ccc(Sc2ccccc2)cn1
142	CC1CCCCN1c1ccc([N+](=O)[O-])cc1C(=O)c1ccc(Cl)cc1 (stereo unspecified)
185 to 190	CC(C)c1ccc(-n2c(CC(=O)O)c(C(=O)O)c3cc(Oc4cccc(C(F)(F)F)c4)ccc32)cc1
156 to 158	CCOc1nc2ccccc2nc1NC(=O)N1CCN(C(c2ccccc2)c2ccccc2)CC1
80	COc1ccc(C=O)cc1OCc1ccc2ccccc2c1
170	CC(=O)N(C)CCCC(=O)OC1c2ccccc2C(=O)N1c1ccc2ccc(Cl)nc2n1 (stereo unspecified)
223	Cn1c(=O)c(NS(C)(=O)=O)c(N2CCN(C(=O)c3cccs3)CC2)c2ccccc21
287 to 289	COc1cc2c3c(nc4ccc(Cl)cc4c3c1)-c1ccc(Cl)cc1N2C
78 to 80	O[C@@H]1CN(Cc2ccccc2)C[C@H]1Oc1c(Cl)cccc1Cl (relative stereo)
192 to 193	COc1ccc(C(=O)N2c3ccccc3C(N3CCCc4cc(NC(=O)OC(C)(C)C)ccc43)CC2C)cc1OC (stereo unspecified)

melting point [°C]	Compound
142	COc1ccc(C(=O)Cc2ccc(Br)cc2)cc1
151	COCn1c(C(O)(c2ccc(Cl)cc2)c2ccc(Cl)cc2)nc(C)c1C
110 to 111	CN1CCC(c2c[nH]c3ccc(NC(=O)c4cccc(Cl)c4)nc23)CC1
188 to 190	COc1ccc(S(=O)(=O)NCc2ccc(-n3c(-c4cccnc4N)nc4cc(Br)cnc43)cc2)cc1
164 to 165	COc1ccc(N2CCN(C[C@H]3COc4ccc5nc(C)ccc5c4O3)CC2)cc1
156 to 157	CC(C)(C)c1ccnc(Oc2ccc(CCNc3ncnc4nccnc34)cc2)c1
77 to 79	COc1cc2c(cc1OC)C(=O)C(=O)N(CCCN(C)CCCSc1ccccc1)CC2
197 to 198	COc1ccc(S(=O)(=O)N2C(=O)[C@@](c3ccccc3OC)(N3C[C@H](OC(=O)C4CCCCC4)C[C@H]3C(=O)N(C)C)c3cc(Cl)ccc32)c(OC)c1
223 to 224	O=C1C(Cc2ccccc2)NC(=S)N1c1nc2ccc(F)cc2s1 (stereo unspecified)
58 to 60	O[C@H]1C[C@H]2CN(C3=Nc4cc(Cl)ccc4Sc4ccccc43)CCN2C1
224 to 228	COc1ccc(-c2csc(Nc3cc4ccccc4cn3)n2)cc1
172 to 173	COc1ccc(C(=O)C2=C(c3ccc(OC)cc3)CCc3cc(OC)ccc32)cc1
225	COc1cc(OC)c2c(=O)[nH]c(-c3cc(C)c(OCCO)c(C)c3)cc2n1
212 to 215	CCc1noc(C)c1-c1[nH]c2ccccc2c1C(=O)C(=O)N(C)C
99 to 100	COc1ccc(CCNCC(O)c2ccc(C)cc2)cc1OC (stereo unspecified)
284	O=C(O)c1ccc(C(=O)O)c(-c2nc3ccccc3o2)c1
164 to 166	CCOC(=O)c1cn(C[C@@H]2CN(c3ccc(N4CCC(=CC#N)CC4)c(F)c3)C(=O)O2)nn1
270 to 273	COc1ccc2[nH]c(=O)cc(C)c2c1
59 to 60	C=CCN(c1ccc(OC)cc1)S(=O)(=O)c1c(F)c(F)c(F)c(F)c1F
152 to 153	CC(=O)Oc1ccc(-c2cnc(-c3ccccc3)nc2Cl)cc1OC(C)=O
